Data as given in patent publication US8859743B2, “Controlling microbial contamination in alcoholic fermentation process” (Arch Chemicals, Inc., priority 2009, dated 2014).

What was measured:
Type in all cases: cell-based
Wild yeast = assay: Count of wild yeast in treated fermentative must (WLN+)
Lactobacilli = assay: Count of Lactobacilli in treated fermentative must (MRS)
Saccharomyces cerevisiae = assay: Count of fermentative yeast in treated fermentative must (WLN)
bacteria = assay: Count of other bacteria in treated fermentative must (TSA)
[1] = in relation to the control sample 4

CC[C@@]1([C@@H]2O[C@@H]([C@H]3O[C@@](O)(CO)[C@H](C)C[C@@H]3C)C[C@@H]2C)CC[C@H]([C@]2(C)CC[C@]3(C[C@H](O)[C@@H](C)[C@@H]([C@@H](C)[C@@H](OC)[C@H](C)C(=O)O)O3)O2)O1 [Sample 01, monensin]
WLN+ UFC/mL Wild yeast (Wild yeast; fermentative must after treatment, blank 9.5 × 10^6): 2 × 10^4 UFC/mL
reduction in the wild yeast (Wild yeast; [1]): about 3 log
MRS UFC/mL Lactobacilli (Lactobacilli; fermentative must after treatment, blank 3.1 × 10^6): 2.5 × 10^2 UFC/mL
reduction in the Lactobacilli (Lactobacilli; [1]): about 4 log
WLN UFC/mL Saccharomyces cerevisiae (Saccharomyces cerevisiae; fermentative must after treatment, blank 1.3 × 10^6): 1 × 10^5 UFC/mL
reduction in the fermentative yeast (Saccharomyces cerevisiae; [1]): about 1 log
TSA UFC/mL bacteria (bacteria; fermentative must after treatment, blank 6 × 10^5): 7 × 10^3 UFC/mL
reduction in other bacteria (bacteria; [1]): about 2 log
